Entries after “also recorded” stand apart in the source; their conditions may differ.
Columns and labels:
[1] = Hepatic phase II glucuronidation, human microsomes; format: in vitro ADME; details: 50 µM, 4 h; for glucuronidation: conversion and formation of glucuronides, in words: human microsomes
Procedure: (§1) Liver microsomes and cytosol were obtained for two organisms, horse and human. Fresh horse liver was purchased locally cut to pieces of ca. 50 g each and frozen in liquid nitrogen. Until further usage, the liver was stored at -80 °C. The preparation of microsomes and cytosol was carried out according to Balk et al. ([Balk et al., 1984]), and the protein content was determined by Bradford assay with bovine serum albumin as a reference ([Bradford, 1976]). Human liver microsomes and cytosol (150 Donors Ultrapool™) were provided by Corning, Inc. (Corning, New York, NY, USA). Besides assay-specific positive controls, all assays included stability controls, moreover, matrix influences were considered. For oxidation, additional non-oxidation controls were included. Each experiment was performed in duplicate. All stated concentrations are final concentration values. The test compounds (acetoxystachybotrylactam acetate-tryptophan 2a, 2b and acetoxystachybotrylactam acetate-tryptamine 3a, 3b ) were extended by the most biologically active derivative previously characterized by our group (acetoxystachybotrylactam acetate-agmatine 4 ) ([Steinert et al., 2022]).
(§2) For phase II metabolism, potential sulfation and glucuronidation were investigated. For sulfation, the reaction mixture was pipetted as follows: first, ultrapure water was added and mixed with a 1 mM DTT solution (contains DTT, 100 mM phosphate buffer, 100 µM ascorbic acid, pH 7.4). Then, PAPS (100 µM) and the substance of interest (50 µM) were added, which was concluded by the addition of horse/human cytosol (10 mg protein/mL). For glucuronidation, first, ultrapure H2O, phosphate buffer (50 mM) and MgCl2 (5 mM) were added to the reaction vessel, followed by addition of the investigated substance (50 µM), UDPGA (5 µM), and horse/human microsomes (1 mg protein/mL), respectively. For both assays, the final volume was 100 µL which was subsequently incubated for 4 h at 37 °C in darkness. Quenching and protein precipitation was achieved by adding 200 µL of cold MeCN (-20 °C). After centrifugation (4 °C, 10 min, 15,000 rpm), 150 µL of supernatant was diluted with 850 µL H2O, which was subsequently analyzed by HPLC-qToF-HRMS. For both experiments, 50 µM 7-hydroxycumarin served as positive control.
Chromatographic separation and mass spectrometric detection were identical to the parameters already described for the fragmentation experiments for phase I and phase II glucuronidation metabolism. For sulfation, the HPLC-qToF-HRMS was operated in negative ionization mode at -4.5 kV and otherwise identical source parameters as previously described. […]

[2] = Hepatic phase I metabolism (oxidation), horse microsomes; format: in vitro ADME; details: 10 µM, 90 min
Procedure: as §1
(§3) The phase I metabolism was investigated utilizing a NADPH- regenerating system. […] After centrifugation (4 °C, 10 min, 15,000 rpm), 150 µL of supernatant was diluted with 850 µL H2O, which was subsequently analyzed by HPLC-qToF-HRMS. […]

[3] = Hepatic phase II sulfation, human cytosol; format: in vitro ADME; details: 50 µM, 4 h
Procedure: as §1
as §2, with “Quenching and protein precipitation was achieved by adding 200 µL of cold MeCN (-20 °C).” left out, “For both experiments, 50 µM 7-hydroxycumarin served as positive control.” left out

[4] = system: Human liver carcinoma cells (HepG2, HB-8065); parameters: method as in Steinert et al., 2022; details: 50 µM, 24 h; data of Figure 8 for compound 1 from previous investigation; ref Steinert et al., 2022; cited from earlier work
[5] = Hepatic phase I metabolism (oxidation), human microsomes; format: in vitro ADME; details: 10 µM, 90 min
Procedure: as §1, §3

[6] = Hepatic phase II sulfation, horse cytosol; format: in vitro ADME; details: 50 µM, 4 h
Procedure: as §1
as §2, with “Quenching and protein precipitation was achieved by adding 200 µL of cold MeCN (-20 °C).” left out, “For both experiments, 50 µM 7-hydroxycumarin served as positive control.” left out

[7] = Hepatic phase II glucuronidation, horse microsomes; format: in vitro ADME; details: 50 µM, 4 h; for glucuronidation: conversion and formation of glucuronides, in words: horse microsomes
Procedure: as §1
as §2, with “Quenching and protein precipitation was achieved by adding 200 µL of cold MeCN (-20 °C).” left out, “For both experiments, 50 µM 7-hydroxycumarin served as positive control.” left out

HepG2 = test: Micronucleus assay (genotoxicity, OECD 487); format: cell-based, human; details: 1 at 25 µM, 3a at 5 and 25 µM
Procedure: The genotoxic effects of the AcAc ( 1 ) and its semi-synthetic products ( 2a , 2b; 3a , 3b ) were evaluated with the micronucleus assay, performed based on OECD Test guideline 487. HepG2 were cultivated in accordance with the descriptions of Kalinina et al. ([Kalinina et al., 2018]). The cells were seeded with 300,000 cells/slide on Polysine® slides (Epredia™ Polysine™ Microscopic Adhesion Slides, FisherScientific) in quadriPERM® culture dishes (Sarstedt, Nümbrecht, Germany) and cultivated for 24 h. Then, they were incubated with the test compounds (0.5-25 µM) in serum free DMEM for 5 h. As positive control 0.6 µM mitomycin C (MMC) was used. All tested compounds were dissolved in DMSO. Cells were washed with sterile phosphate-buffered saline (PBS) and incubated with 4 µg/mL cytokinesis inhibitor cytochalasin B (Santa Cruz Biotechnology, USA) in DMEM for 19 h. Slides were washed with PBS and cold MeOH. Afterwards, cells were fixated with MeOH at -20 °C for 1 h. […] Subsequently, cells were evaluated using a fluorescence microscope (Zeiss Axio Imager 2, Oberkochen, Germany) with filters of 365/445 nm and 546/575 nm. The micronucleus rate was evaluated by counting 1,000 binucleate cells and binucleate cells with micronuclei on each slide and calculating the proportion of binucleate cells containing one or more micronuclei. […]

human β-FXIIa = target: T1, human β-FXIIa (Homo sapiens, UniProt P00748); test: Serine protease inhibition assay, fluorogenic substrate, FXIIa; format: biochemical; details: endpoint RFU after 1 h, 25 °C
T1 construct: human β-FXIIa, HFXIIAB, > 95% purity; Molecular Innovations; purchased Molecular Innovations HFXIIAB
Procedure: (§4) The inhibitory activity of further semi-synthesized compounds toward the coagulation factor XIIa, thrombin, FXIa, FXa, and trypsin was measured by quantifying the hydrolysis rate of the fluorogenic substrates as reported previously ([Korff et al., 2020]; [Platte et al., 2021]; [Imberg et al., 2022]). Briefly, the activity was tested in buffer (10 mM Tris-Cl, 150 mM NaCl, 10 mM MgCl2·6 H2O, 1 mM CaCl2·2 H2O, 0.1% w/v BSA, 0.01% v/v Triton-X100, pH 7.4) utilizing clear flat-bottom, black polystyrene 96-well plates. The enzymes (human β-FXIIa, HFXIIAB, > 95% purity; Molecular Innovations, 2.5 nM – final concentration; human α-thrombin (active) protein, ABIN2127880, > 95% purity; antibodies-online, 0.25 nM – final concentration; human Factor Xa, HFXA, > 95% purity; Molecular Innovations, 2.5 nM – final concentration; human factor XIa, HFXIA, >95% purity; Molecular Innovations, 0.5 nM – final concentration porcine trypsin; Merck, 3.5 nM – final concentration) and the fluorogenic substrates for FXIIa: Boc-Gln-Gly-Arg-AMC (Pepta Nova, 25 µM – final concentration, Km = 167 µM); for thrombin: Boc Val Pro Arg AMC (Pepta Nova, 25 µM – final concentration, Km = 18 µM); for FXa: Boc-Ile-Glu-Gly-Arg-AMC (Pepta Nova, 25 µM – final concentration); for FXIa: Boc-Glu-(OBzl)-Ala-Arg-AMC (Pepta Nova, 25 µM – final concentration); for trypsin: Z-Gly-Gly-Arg-AMC (Sigma-Aldrich, 25 µM – final concentration) were used. The fluorogenic substrate solution was added into the wells followed by the addition of test-compounds solution, and the reaction was triggered by addition of the enzyme solution (final testing volume – 150 µL). In case of blank (substrate + buffer) and control (substrate + enzyme) wells, DMSO was added instead of the test-compounds’ solution. Fluorescence intensity was measured with Microplate Reader Mithras LB 940 (Berthold Technologies, excitation at 355 nm, emission at 460 nm) for a period of 1 h with a read every minute. The reactions were performed at 25 °C. To derive % of enzyme inhibition, endpoint RFU (single fluorescence reading after 1 h) was used. As a positive controls for thrombin, FXa, FXIIa, FXIa, and trypsin were used dabigatran (500 nM), rivaroxaban (500 nM), compound “39b” (500 nM) ([Platte et al., 2021]), Inhibitor 5t (8 µM) ([Imberg et al., 2022]), Inhibitor E (2 µM) ([Erbacher et al., 2024]), respectively. Semi-synthesized compounds were screened at 200 µM.

human factor XIa = target: T2, human factor XIa (Homo sapiens, UniProt P03951); test: Serine protease inhibition assay, fluorogenic substrate, FXIa; format: biochemical; details: endpoint RFU after 1 h, 25 °C
T2 construct: human factor XIa, HFXIA, >95% purity; Molecular Innovations; purchased Molecular Innovations HFXIA
Procedure: as §4

[8] = system: Human liver carcinoma cells (HepG2, HB-8065); details: HepG2, 24 h incubation, resazurin
human Factor Xa = target: T3, human Factor Xa (Homo sapiens, UniProt P00742); test: Serine protease inhibition assay, fluorogenic substrate, FXa; format: biochemical; details: 200 µM, endpoint RFU after 1 h, 25 °C
T3 construct: human Factor Xa, HFXA, > 95% purity; Molecular Innovations; purchased Molecular Innovations HFXA
Procedure: (§5) The inhibitory activity of further semi-synthesized compounds toward the coagulation factor XIIa, thrombin, FXIa, FXa, and trypsin was measured by quantifying the hydrolysis rate of the fluorogenic substrates as reported previously ([Korff et al., 2020]; [Platte et al., 2021]; [Imberg et al., 2022]). Briefly, the activity was tested in buffer (10 mM Tris-Cl, 150 mM NaCl, 10 mM MgCl2·6 H2O, 1 mM CaCl2·2 H2O, 0.1% w/v BSA, 0.01% v/v Triton-X100, pH 7.4) utilizing clear flat-bottom, black polystyrene 96-well plates. […] Fluorescence intensity was measured with Microplate Reader Mithras LB 940 (Berthold Technologies, excitation at 355 nm, emission at 460 nm) for a period of 1 h with a read every minute. […] To derive % of enzyme inhibition, endpoint RFU (single fluorescence reading after 1 h) was used. […]

[9] = Precipitation in cell culture medium; format: physicochemical; details: cell culture medium (DMEM), 0.5% DMSO
porcine trypsin = target: T4, porcine trypsin (Sus scrofa, UniProt P00761); test: Serine protease inhibition assay, fluorogenic substrate, trypsin; format: biochemical; details: 200 µM, endpoint RFU after 1 h, 25 °C
T4 construct: porcine trypsin; Merck, 3.5 nM – final concentration; purchased Merck
Procedure: as §5

T1 sequence (P00748 373-615 limits assumed, other chains not shown): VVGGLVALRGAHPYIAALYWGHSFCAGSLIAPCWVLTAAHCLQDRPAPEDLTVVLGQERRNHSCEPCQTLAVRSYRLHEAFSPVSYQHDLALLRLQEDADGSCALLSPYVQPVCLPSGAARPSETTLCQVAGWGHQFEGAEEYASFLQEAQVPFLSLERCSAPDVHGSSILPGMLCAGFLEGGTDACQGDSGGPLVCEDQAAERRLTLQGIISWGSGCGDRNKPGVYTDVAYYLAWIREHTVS
T2 sequence (P03951 388-625 limits assumed): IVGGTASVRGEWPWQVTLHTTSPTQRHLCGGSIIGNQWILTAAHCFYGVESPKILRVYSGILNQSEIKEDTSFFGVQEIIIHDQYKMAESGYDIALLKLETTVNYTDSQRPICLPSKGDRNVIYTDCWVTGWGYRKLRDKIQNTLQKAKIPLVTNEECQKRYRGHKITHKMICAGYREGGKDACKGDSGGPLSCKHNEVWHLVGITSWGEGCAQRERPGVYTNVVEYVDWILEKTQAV
T2 sequence (P03951 19-387 partner limits assumed): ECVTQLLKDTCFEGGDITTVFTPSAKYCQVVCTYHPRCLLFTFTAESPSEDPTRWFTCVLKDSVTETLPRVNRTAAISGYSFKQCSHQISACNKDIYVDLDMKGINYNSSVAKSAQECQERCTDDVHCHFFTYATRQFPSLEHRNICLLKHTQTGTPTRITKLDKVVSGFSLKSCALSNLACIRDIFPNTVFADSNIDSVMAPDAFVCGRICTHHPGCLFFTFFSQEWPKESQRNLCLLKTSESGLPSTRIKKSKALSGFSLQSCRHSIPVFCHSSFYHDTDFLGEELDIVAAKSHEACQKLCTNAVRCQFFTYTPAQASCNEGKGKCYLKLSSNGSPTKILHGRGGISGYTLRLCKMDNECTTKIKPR
T3 sequence (P00742 235-488 limits assumed): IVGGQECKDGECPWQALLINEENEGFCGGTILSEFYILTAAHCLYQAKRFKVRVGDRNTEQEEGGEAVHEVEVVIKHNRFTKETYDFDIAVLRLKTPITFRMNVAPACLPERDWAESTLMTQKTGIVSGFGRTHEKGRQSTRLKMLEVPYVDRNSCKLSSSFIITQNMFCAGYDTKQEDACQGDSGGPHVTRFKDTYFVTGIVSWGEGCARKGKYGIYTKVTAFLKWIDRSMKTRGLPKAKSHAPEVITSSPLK
T3 sequence (P00742 41-179 partner limits assumed): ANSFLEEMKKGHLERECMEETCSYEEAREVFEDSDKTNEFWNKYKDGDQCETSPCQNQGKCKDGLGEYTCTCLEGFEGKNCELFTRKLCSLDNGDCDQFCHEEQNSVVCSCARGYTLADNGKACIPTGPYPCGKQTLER
T4 sequence (P00761 9-231): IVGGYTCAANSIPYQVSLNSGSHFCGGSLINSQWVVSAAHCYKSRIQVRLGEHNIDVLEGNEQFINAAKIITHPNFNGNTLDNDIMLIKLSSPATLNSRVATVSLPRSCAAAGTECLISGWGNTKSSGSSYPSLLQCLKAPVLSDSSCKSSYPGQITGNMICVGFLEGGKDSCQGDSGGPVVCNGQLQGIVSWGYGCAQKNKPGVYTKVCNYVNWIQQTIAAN

Structure (SMILES)	glucuronidation: conversion and formation of glucuronides, in words [1]	remaining parental compound, glucuronidation (phase II) ([1]; human, 37 °C, normalized to stability control, n.d. = not detected)	phase I conversion, in words [2]	metabolism under sulfation conditions, in words [3]	HepG2 cell viability [4]	phase I conversion, in words [5]	metabolism under sulfation conditions, in words [6]	glucuronidation: conversion and formation of glucuronides, in words [7]	remaining parental compound, glucuronidation (phase II) ([7]; horse, 37 °C, normalized to stability control, n.d. = not detected)	cell damage seen in the micronucleus assay (slides excluded from evaluation) (HepG2)	inhibition at 200 µM (human β-FXIIa) [%]	inhibition at 200 µM (human factor XIa) [%]	cytotoxicity (cell viability, T/C), in words [8]	inhibition of FXIIa (human β-FXIIa; 200 µM)	inhibition of FXa (human Factor Xa)	concentration at which precipitation in cell culture medium starts [9] [µM]	inhibition of trypsin (porcine trypsin)
CC(=O)O[C@@H]1[C@H](OC(C)=O)C[C@@]2(C)C(CC[C@@H](C)[C@]23Cc2c(O)cc(C=O)c(C=O)c2O3)C1(C)C (stereo partly drawn) [Compound 1, acetoxystachybotrydial acetate]	did not at all	no 1 remaining in solution	metabolized fastest	did undergo metabolism	below 50%	metabolized fastest	did undergo metabolism	did not at all	no 1 remaining in solution	left the cells visibly damaged							
CC(=O)OC1CC2(C)C(CCC(C)C23Cc2c(O)cc4c(c2O3)CN(C(Cc2c[nH]c3ccccc23)C(=O)O)C4=O)C(C)(C)C1OC(C)=O (stereo not drawn) [Compound 2a, Acetoxystachybotrylactam acetate-tryptophan]											63	51	more toxic				
CC(=O)OC1CC2(C)C(CCC(C)C23Cc2c(O)cc4c(c2O3)C(=O)N(C(Cc2c[nH]c3ccccc23)C(=O)O)C4)C(C)(C)C1OC(C)=O (stereo not drawn) [Compound 2b, Acetoxystachybotrylactam acetate-tryptophan]	more readily converted; also recorded: more available for glucuronidation than 2a							more readily converted; also recorded: more available for glucuronidation than 2a			34	66	less cytotoxic				
CC(=O)OC1CC2(C)C(CCC(C)C23Cc2c(O)cc4c(c2O3)CN(CCc2c[nH]c3ccccc23)C4=O)C(C)(C)C1OC(C)=O (stereo not drawn) [Compound 3a, Acetoxystachybotrylactam acetate-tryptamine]										impaired cell viability even more		9		no inhibition	no inhibition	≥ 10	no inhibition

— publication PMC11621054, “Biological evaluation of semi-synthetic isoindolinone isomers produced by Stachybotrys chartarum” (Frontiers in Fungal Biology, 2024)
